Source: patent US5149711A, “2-cyclopentenone derivatives” (Teijin Limited, priority 1988, dated 1992)
Values after ≈ are worked out from the molar mass of the structure shown.

What was measured:
[1] = tested on: P388 mouse leukemia cells; assay: Measurement of the antitumor effect on P388 mouse leukemia tumor (increase of life span); format: in vivo; details: intraperitoneal, 9 days, BDF1 mice
Procedure: (2) Measurement of the antitumor effect on P338 mouse leukemia tumor
1×10^6 P388 mouse leukemia cells were intraperitoneally administered to BDF1 mice. After the lapse of 24 hours, each of the test compounds shown in Table II was intraperitoneally administered to the mice for 9 days. The periods of survival of these animals were examined and the increase of their life span (ILS %) was determined.

L1210 leukemia cells = assay: Measurement of the action of inhibiting proliferation of L1210 leukemia cell; format: cell-based; details: Mus musculus, L1210, 96 h; RPMI medium with 10% FCS, 37° C., 4 days, trypan blue count of surviving cells
Procedure: (1) Measurement of the action of inhibiting Proliferation of L1210 leukemia cell
L1210 leukemia cells were added to an RPMI medium containing 10% FCS (fetal calf serum), and the concentration of the cells was adjusted to […]. Each of the test compounds shown in Table I was dissolved in 99.5% ethanol. Prior to use, the final concentration of the ethanol solution was adjusted to less than 0.1%, and it was added to the culture medium. The culture medium was then maintained at 37° C. in a stationary condition for 4 days. After the cultivation, the number of surviving cells was measured by dyeing with trypan blue. As a control, 0.1% ethanol was used. A dose-reaction curve plotted from the ratios of proliferation against the control, and IC50 was determined.

B16 melanoma = assay: Measurement of the antitumor effect on B16 melanoma mouse tumor (tumor weight); format: in vivo; details: intraperitoneal, day 1-9, tumor weight on day 18, BDF1 mice
Procedure: (3) Measurement of the antitumor effect on B16 melanoma mouise tumor
For B16 melanoma, BDF1 mice were implanted subcutaneously with 0.2 ml of a 10% tumor homogenate in saline in the left flank. The test compounds were each given intraperitoneally on day 1-9. The activity was assessed by measuring the tumor weight on day 18.

O=C1C=CC(O)(CCCCOc2ccccc2)C1=C/C=C/[C@H](O)[C@H](O)CO (stereo partly drawn) [5-[(4S,5R)-4,5,6-trihydroxy-2-hexenylidene]-4-(4-phenoxybutyl)-4-hydroxy-2-cyclopentenone]
increase of life span (ILS) ([1]; 5 mg/kg/day): 24.5% | increase of life span (ILS) ([1]; 10 mg/kg/day): 32.7% | increase of life span (ILS) ([1]; 20 mg/kg/day): 44.9% | IC50 (L1210 leukemia cells): 0.8 µg/mL (≈ 2.14 µM)

O=C1C=CC(O)(CCCCOc2ccccc2)/C1=C\C=C\C(O)CCCO (stereo not shown) [5-[(E)-4,7-dihydroxy-(2E)-heptenylidene]-4-(4-phenoxybutyl)-4-hydroxy-2-cyclopentenone, reference compound]
increase of life span (ILS) ([1]; 5 mg/kg/day): 21.4% | increase of life span (ILS) ([1]; 10 mg/kg/day): 31.2% | increase of life span (ILS) ([1]; 20 mg/kg/day): -69.2% | Proliferation inhibitory rate (B16 melanoma; 5 mg/kg/day): -13.5% | Proliferation inhibitory rate (B16 melanoma; 10 mg/kg/day): 32.7%

CC(=O)OC[C@@H](OC(C)=O)[C@H](/C=C/C=C1C(=O)C=CC1(O)CCCCOc1ccccc1)OC(C)=O (stereo partly drawn) [5-[(4S,5R)-4,5,6-triacetoxy-2-hexenylidene]-4-(4-phenoxybutyl)-4-hydroxy-2-cyclopentenone]
IC50 (L1210 leukemia cells): 0.1 µg/mL (≈ 0.2 µM)

CC(=O)OC[C@@H](O)[C@H](/C=C/C=C1C(=O)C=CC1(O)CCCCOc1ccccc1)OC(C)=O (stereo partly drawn) [5-[(4S,5R)-4,6-diacetoxy-5-hydroxy-2-hexenylidene]-4-(4-phenoxybutyl)-4-hydroxy-2-cyclopentenone]
Proliferation inhibitory rate (B16 melanoma; 5 mg/kg/day): 9.6% | Proliferation inhibitory rate (B16 melanoma; 10 mg/kg/day): 45.5% | IC50 (L1210 leukemia cells): 0.2 µg/mL (≈ 0.436 µM)
